How the values were obtained:
H358 cells = assay: H358 cell proliferation inhibition (CellTiter-Glo luminescent cell viability assay); format: cell-based; conditions: Homo sapiens, NCI-H358, 168 h, 7 days
Procedure, shortened: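 H358 cells seeded at 3000 cells/well in RPMI1640/10% FBS, treated with compound for 7 days at 37 °C/5% CO2. Viability read by CellTiter-Glo 3D luminescence, normalised to cell-free (100%) and compound-free (0%) controls; IC50 fitted from 8 concentrations by four-parameter curve.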

[1] = Plasma protein binding rate by equilibrium dialysis; format: in vitro ADME; conditions: CD-1 mouse plasma, 1 µM compound, 6 h dialysis at 37 °C
Description: • 1. CD-1 mouse plasma (BioIVT) • 2. 96-well equilibrium dialysis plate (HTDialysis LLC, Gales Ferry, CT, HTD96B) and equilibrium dialysis membrane (MWCO 12-14K, #1101) • 3. Positive control compound warfarin • 4. ABI QTrap 5500 liquid chromatography-mass spectrometry system
• 1. Preparation of a buffer with a concentration of 100 mM sodium phosphate and 150 mM NaCl: an alkaline solution with a concentration of 14.2 g/L Na2HPO4 and 8.77 g/L NaCl was prepared with ultrapure water, and an acidic solution with a concentration of 12.0 g/L NaH2PO4 and 8.77 g/L NaCl was prepared with ultrapure water. The alkaline solution was titrated with the acidic solution until the pH was 7.4 to prepare a buffer with a concentration of 100 mM sodium phosphate and 150 mM NaCl. • 2. Preparation of a dialysis membrane: the dialysis membrane was soaked in ultrapure water for 60 min to separate the membrane into two pieces, then soaked with 20% ethanol for 20 min, and finally soaked with dialysis buffer for 20 min. • 3. Preparation of plasma: the frozen plasma was quickly thawed at room temperature and then centrifuged at 3,220 g at 4 °C for 10 min to remove clots, and the supernatant was collected to a new centrifuge tube. The pH of the plasma was measured and recorded. The plasma with pH 7-8 was used. • 4. Preparation of a plasma sample containing the compound: A 10 mM stock solution of the compound or the positive control compound was diluted with DMSO to give a 200 µM working solution. 3 µL of 200 µM of the compound working solution was added to 597 µL of mouse plasma to give a plasma sample with a final concentration of 1 µM. • 5. Equilibrium dialysis procedures: a dialysis device was assembled according to the instructions. […]
The peak areas of the compound on the buffer side and the plasma side were measured. The plasma protein binding rate of the compound was calculated by the following formula: [formula] %Binding rate = 1−%Free rate [formula]
All data were calculated by Microsoft Excel software. […]

Row | Compound | IC50 (H358 cells) [nM] | %Binding rate [1] [%]
1 | Cc1nc(N[C@H](C)c2cccc(C(F)F)c2F)c2cn(C3(CF)CC3)c(=O)c(N3CCOCC3)c2n1 [Example 34, (R)-4-((1-(3-(difluoromethyl)-2-fluorophenyl)ethyl)amino)-6-(1-(fluoromethyl)cyclopropyl)-2-methyl-8-morpholinylpyrido[4,3-d]pyrimidine-7(6H)-one] | 12.3 | –
2 | [2H]C([2H])([2H])Oc1c(=O)n(C2(CF)CC2)cc2c(N[C@H](C)c3cccc(C(F)F)c3F)nc(C)nc12 [Example 23, (R)-4-((1-(3-(difluoromethyl)-2-fluorophenyl)ethyl)amino)-6-(1-(fluoromethyl)cyclopropyl)-8-(methoxy-d3)-2-methylpyrido[4,3-d]pyrimidine-7(6H)-one] | 118 | 91.3
3 | Cc1nc(N[C@H](C)c2cccc(C(F)F)c2F)c2cn(C3(CF)CC3)c(=O)c(N3CCOC[C@@H]3C)c2n1 [Example 40, 4-(((R)-1-(3-(difluoromethyl)-2-fluorophenyl)ethyl)amino)-6-(1-(fluoromethyl)cyclopropyl)-2-methyl-8-((S)-3-methylmorpholine)pyrido[4,3-d]pyrimidine-7(6H)-one] | 14.2 | 92.9
4 | COc1c(=O)n(N2CCOCC2)cc2c(N[C@H](C)c3cccc(C(F)F)c3F)nc(C)nc12 [Example 20, (R)-4-((1-(3-(difluoromethyl)-2-fluorophenyl)ethyl)amino)-8-methoxy-2-methyl-6-morpholinepyrido[4,3-d]pyrimidine-7(6H)-one] | 98.2 | –
5 | [2H][C@](C)(Nc1nc(C)nc2c(N3CCOCC3)c(=O)n(C3(CF)CC3)cc12)c1cccc(C(F)F)c1F [Example 55, (R)-4-((1-(3-(difluoromethyl)-2-fluorophenyl)ethyl-1-d)amino)-6-(1-(fluoromethyl)cyclopropyl)-2-methyl-8-morpholinylpyrido[4,3-d]pyrimidine-7(6H)-one] | 24.3 | 95.7

— patent EP4417607A1, “HETEROCYCLIC COMPOUND AS SOS1 INHIBITOR AND USES THEREOF” (Nanjing Zaiming Pharmaceutical Co., Ltd., priority 2021, dated 2023)
